Like-named read-outs stand apart in the source and are kept apart here.
What was measured:
[1] = Equilibrium solubility: mixed with deionized water at 80° C. for 15 minutes, cooled to room temperature, observed at least four days; assay type: physicochemical; conditions: after heating to 80° C. for 15 minutes
From the text: (§1) The composition can optionally be expressed in terms of the concentration of one or more steviol glycoside(s). […] Clear solutions without precipitates are considered soluble. Unless indicated otherwise herein, the term “solubility” refers to “equilibrium solubility.”

[2] = Instantaneous solubility: vigorously mixed with water at room temperature (25° C.); assay type: physicochemical; conditions: in water at room temperature, absence of compounds that enhance solubility
From the text: as §1

[3] = in beverage formulations; cited from earlier work
[4] = cited from earlier work
[5] = Observation for solubility / precipitation of acid and steviol glycoside samples in water (Example I); conditions: 0.3% steviol glycoside; 5:1 and 2:1 molar ratio of pamoic acid to steviol glycoside; pH not adjusted

C=C1C[C@@]23CC[C@H]4[C@@](C)(CCC[C@@]4(C)C(=O)O[C@@H]4O[C@H](CO)[C@@H](O)[C@H](O)[C@H]4O[C@@H]4O[C@H](CO)[C@@H](O)[C@H](O)[C@H]4O)[C@@H]2CC[C@]1(O[C@@H]1O[C@H](CO)[C@@H](O)[C@H](O[C@@H]2O[C@H](CO)[C@@H](O)[C@H](O)[C@H]2O)[C@H]1O[C@@H]1O[C@H](CO)[C@@H](O)[C@H](O)[C@H]1O)C3 [Rebaudioside D, rebaudioside D]
equilibrium solubility [1]: 0.08%
instantaneous solubility [2]: less than 0.08%

C=C1C[C@@]23CC[C@H]4[C@@](C)(CCC[C@@]4(C)C(=O)O[C@@H]4O[C@H](CO)[C@@H](O)[C@H](O[C@@H]5O[C@H](CO)[C@@H](O)[C@H](O)[C@H]5O)[C@H]4O[C@@H]4O[C@H](CO)[C@@H](O)[C@H](O)[C@H]4O)[C@@H]2CC[C@]1(O[C@@H]1O[C@H](CO)[C@@H](O)[C@H](O[C@@H]2O[C@H](CO)[C@@H](O)[C@H](O)[C@H]2O)[C@H]1O[C@@H]1O[C@H](CO)[C@@H](O)[C@H](O)[C@H]1O)C3 [Rebaudioside M, rebaudioside M]
equilibrium solubility [1]: about 0.2%
aqueous solubility and dissolution qualities [3]: poor aqueous solubility
instantaneous solubility [2]: about 0.13%

CC(=O)O[C@@H](C(=O)O)c1ccccc1 [acetyl-r-mandelic acid]
solubility (ppm) ([4]; temperature 25 ° C.): 1.11E+04 ppm

O=C(O)C(CO)c1ccccc1 (stereo not drawn) [alpha-(hydroxymethyl)benezeneacetic acid]
solubility (ppm) ([4]; temperature 20 ° C.): 1.91E+04 ppm

O=C(O)[C@@H](O)c1ccccc1 [alpha-hydroxybenzeneacetic acid, (S)]
solubility (ppm) ([4]; temperature 25 ° C.): 9.26E+04 ppm

O=C(O)C(=O)c1ccccc1 [alpha-oxobenzeneacetic acid]
solubility (ppm) ([4]; temperature 0 ° C.): 4.79E+05 ppm

Nc1ccccc1C(=O)O [aniline-2-carboxylic acid]
solubility (ppm) ([4]; temperature 20 ° C.): 3.48E+03 ppm

Nc1cccc(C(=O)O)c1 [aniline-3-carboxylic acid]
solubility (ppm) ([4]; temperature 14.9 ° C.): 5.87E+03 ppm

Nc1ccc(C(=O)O)cc1 [aniline-4-carboxylic acid]
solubility (ppm) ([4]; temperature 25 ° C.): 4.98E+03 ppm

O=C(O)CCc1ccccc1 [benzenepropanoic acid]
solubility (ppm) ([4]; temperature 20 ° C.): 5.87E+03 ppm

CCNC(=O)COC(=O)c1ccccc1OC(C)=O [benzoic acid, 2-(acetyloxy)-, 2-(ethylamino)-2-oxoethyl ester]
solubility (ppm) ([4]; temperature 21 ° C.): 5.49E+03 ppm

CN(CCO)C(=O)COC(=O)c1ccccc1O [benzoic acid, 2-hydroxy-, 2-[(2-hydroxyethyl)methylamino]-2-oxoethyl ester]
solubility (ppm) ([4]; temperature 21 ° C.): 6.26E+03 ppm

O=C(O[C@@H](C(=O)O)c1ccccc1)c1ccccc1 [benzoyl-r-mandelic acid]
solubility (ppm) ([4]; temperature 25 ° C.): 7.78E+03 ppm

N[C@@H](CSCSC[C@H](N)C(=O)O)C(=O)O [djenkolic acid]
solubility (ppm) ([4]; temperature 100 ° C.): 4.98E+03 ppm

CCOc1ccc(NC(=O)C(O)C(O)C(=O)O)cc1 (stereo not drawn) [ethonyphenyl tartramic acid]
solubility (ppm) ([4]; temperature 14 ° C.): 3.97E+03 ppm

O=C(O)c1cc2c(cc1C(=O)O)OCO2 [hydrastic acid]
solubility (ppm) ([4]; temperature 15 ° C.): 5.96E+03 ppm

CC(=O)N(CC(C)C(=O)O)c1c(I)cc(I)c(N)c1I (stereo not drawn) [iocetamic acid]
solubility (ppm) ([4]; temperature 37 ° C.): 5.26E+03 ppm

CCC(COCCOc1c(I)cc(I)c(NC(C)=O)c1I)C(=O)O (stereo not drawn) [iopronic acid]
solubility (ppm) ([4]; temperature 37 ° C.): 1.97E+04 ppm

CC(C)C1C(=O)NC(=O)NC1=O [isopropylbarbituric acid]
solubility (ppm) ([4]; temperature 20 ° C.): 5.89E+03 ppm

O=C(O)c1cccc(O)c1 [m-hydroxybenzoic acid]
solubility (ppm) ([4]; temperature 20 ° C.): 8.45E+03 ppm

O=C(O)c1cccc([N+](=O)[O-])c1 [m-nitrobenzoic acid]
solubility (ppm) ([4]; temperature 25 ° C.): 3.53E+03 ppm

O=C(O)C(O)c1ccccc1 (stereo not drawn) [mandelic acid (almonds), mandelic acid]
solubility (ppm) ([4]; temperature 25 ° C.): 1.53E+05 ppm

O=C(O)c1ccccc1[N+](=O)[O-] [o-nitrobenzoic acid]
solubility (ppm) ([4]; temperature 25 ° C.): 7.44E+03 ppm

CCCCCCCCC(C(=O)O)C(=O)O [octylpropanedioic acid]
solubility (ppm) ([4]; temperature 25 ° C.): 5.53E+03 ppm

O=C(O)C(=O)Nc1ccccc1 [oxanilic acid]
solubility (ppm) ([4]; temperature 25 ° C.): 8.17E+03 ppm

O=C(O)c1ccc(O)cc1 [p-hydroxybenzoic acid]
solubility (ppm) ([4]; temperature 25 ° C.): 6.36E+03 ppm

O=C(O)C(=O)c1ccccc1C(=O)O [phthalonic acid]
solubility (ppm) ([4]; temperature 15 ° C.): 3.49E+05 ppm

CC1=NN(c2ccc([N+](=O)[O-])cc2)C(=O)C1[N+](=O)[O-] (stereo not drawn) [picrolonic acid]
solubility (ppm) ([4]; temperature 17 ° C.): 8.92E+03 ppm

CCCOC(=O)OC(C)C(=O)OC (stereo not drawn) [propanoic acid, 2-[(propoxycarbonyl)oxy]-, methyl ester]
solubility (ppm) ([4]; temperature 25 ° C.): 5.15E+03 ppm

CCC(=O)O[C@@H](C(=O)O)c1ccccc1 [propionyl-r-mandelic acid]
solubility (ppm) ([4]; temperature 25 ° C.): 5.15E+03 ppm

O=C(O)c1cc(C(=O)O)c(C(=O)O)cc1C(=O)O [pyromellitic acid]
solubility (ppm) ([4]; temperature 16 ° C.): 1.40E+04 ppm

O=C(O)[C@]1(O)C[C@@H](O)[C@@H](O)[C@H](O)C1 [quinic acid (coffee beans), quinic acid]
solubility (ppm) ([4]; temperature 9 ° C.): 2.25E+05 ppm

CC(C)(C(=O)O)C(C)(C)C(=O)O [tetramethylbutanedioic acid]
solubility (ppm) ([4]; temperature 13.5 ° C.): 4.78E+03 ppm

CCCC/C=C/C(=O)O [trans-2-heptenoic acid]
solubility (ppm) ([4]; temperature 25 ° C.): 5.37E+03 ppm

O=C(O)CCCCCCCCCC(=O)O [undecanedioic acid]
solubility (ppm) ([4]; temperature 21 ° C.): 5.07E+03 ppm

pamoic acid
solubility of sample (conclusion) [5]: not initially soluble and remained insoluble at least after 1 day

Reference: patent publication US11717549B2, “Steviol glycoside solubility enhancers” (CARGILL, INCORPORATED, priority 2017, dated 2023)
